# According to US10010535B2, “Desferrithiocin analogs and uses thereof” (University of Florida Research Foundation, Incorporated, priority 2013, dated 2018):
# Like-named read-outs stand apart in the source and are kept apart here.
# Columns and labels:
# [1] = tested on: iron excretion; assay: Iron-clearing efficiency in iron-overloaded primates (fecal and urine samples); format: in vivo, Cebus apella monkeys
# Description: At least 20 half-lives, 60 days (Wood et al., “The Metabolism of Iron-Dextran Given As a Total-Dose Infusion to Iron Deficient Jamaican Subjects.” Br. J. Hamaetol. 1968, 14, 119-129), elapsed before any of the animals were used in experiments evaluating iron-chelating agents.
# Briefly, the collections began 4 days prior to the administration of the test compound and continued for an additional 5 days after the compound was given. Iron concentrations were determined by flame absorption spectroscopy as presented in other publications (Bergeron et al., “A Comparative Evaluation of Iron Clearance Models.” Ann. N.Y. Acad. Sci. 1990, 612, 378-393; Bergeron et al., “Synthesis and Biological Evaluation of Naphthyldesferrithiocin Iron Chelators.” J. Med. Chem. 1996, 39, 1575-1581).
# In the text below, the term “iron-clearing efficiency” (ICE) is used as a measure of the amount of iron excretion induced by a chelator. The ICE, expressed as a percent, is calculated as (compound-induced iron excretion/theoretical iron excretion)×100. To illustrate, the theoretical iron excretion after administration of one millimole of desferrioxamine B mesylate (DFO) (FIG. 3), a hexadentate chelator that forms a 1:1 complex with Fe(III), is one milli-g-atom of iron. Two millimoles of desferrithiocin (DFT) (Table 1), a tridentate iron chelator that forms a 2:1 complex with Fe(III), are required for the theoretical excretion of one milli-g-atom of iron. The theoretical iron outputs of the chelators were generated on the basis of a 2:1 compound:iron complex. The efficiencies in the rats and monkeys were calculated as set forth elsewhere (Bergeron et al., “Effects of C-4 Stereochemistry and C-4′ Hydroxylation on the Iron Clearing Efficiency and Toxicity of Desferrithiocin Analogs.” J. Med. Chem. 1999, 42, 2432-2440; Bergeron et al., “HBED: A Potential Alternative to Deferoxamine for Iron-Chelating Therapy.” Blood 1998, 91, 1446-1452).
# [2] = Octanol-water partition, shake flask (log Papp); format: physicochemical; settings: pH 7.4, Tris buffer
# Description: The partition values between octanol and water (at pH 7.4, Tris buffer) were determined using a “shake flask” direct method of measuring log Papp values (Sangster et al., Octanol-Water Partition Coefficients: Fundamentals and Physical Chemistry; John Wiley and Sons: West Sussex, England, 1997; Vol. 2). The fraction of compound in the octanol is then expressed as log Papp. […] This is likely due to the presence of the aromatic nitrogen, a moderately good hydrogen bond accepter, on the DFT analogs.
# [3] = tested on: iron excretion; settings: cited from earlier work; for relative percentages of the iron excreted in the bile and urine: rodents
# [4] = tested on: iron excretion; settings: po 75 μmol/kg, cited from earlier work; for relative percentages of the iron excreted in the feces and urine: primates
# [5] = oral; cited from earlier work
# [6] = tested on: urinary Kim-1 excretion; settings: cited from earlier work
# [7] = in vivo; cited from earlier work
# [8] = po once daily 28 d, once daily 384 μmol/kg/d × 10 d, twice daily 237 μmol/kg/dose × 7 d
compound,measurement,setting,value
COCCOCCOc1ccc(C2=N[C@@](C)(C(=O)O)CS2)c(O)c1 [compound 7],"Performance ratio (PR), mean ICEprimates/ICErodents","[1]; primates po, capsule",1.0
same,"Performance ratio (PR), mean ICEprimates/ICErodents","[1]; primates po, sodium salt",1.1
same,LogPapp,[2],−0.89
same,Rodent Iron-Clearing Efficiency (%),"[3]; po 300 μmol/kg, capsules, 48-h sample collection",26.7±4.7%
same,relative percentages of the iron excreted in the bile and urine,"[3]; po 300 μmol/kg, capsules, 48 h",97/3
same,Primate Iron-Clearing Efficiency (%),[4]; capsule,26.3 ± 9.9%
same,Primate Iron-Clearing Efficiency (%),[4]; sodium salt,28.7 ± 12.4%
same,relative percentages of the iron excreted in the feces and urine,[4]; capsule,93/7
same,relative percentages of the iron excreted in the feces and urine,[4]; sodium salt,83/17
same,nephrotoxicity,[5],the renal toxicity virtually disappeared
same,BUN and SCr,[6]; [8],well within the normal range
same,survival of dosing period,[6]; [8],All of the rats survived the dosing period
same,urinary Kim-1 content versus baseline (day 0),[6]; [8],stayed within error of this value
same,"renal toxicity (Kim-1, BUN, SCr), summary","[6]; rat, in vivo",little to no impact on renal function
"C[C@]1(C(=O)O)CSC(c2ccccc2O)=N1 [compound 2, desazadesferrithiocin]","Performance ratio (PR), mean ICEprimates/ICErodents",[1]; primates po / rodents po,8.0
same,LogPapp,[2],−0.34
same,Rodent Iron-Clearing Efficiency (%),"[3]; po 150 μmol/kg, solubilized in 40% Cremophor RH-40/water",2.7±0.5%
same,relative percentages of the iron excreted in the bile and urine,"[3]; po 150 μmol/kg, 40% Cremophor RH-40/water",100/0
same,Primate Iron-Clearing Efficiency (%),[4],21.5±12%
same,relative percentages of the iron excreted in the feces and urine,[4],76/24
same,gastrointestinal toxicity,[7],serious gastrointestinal (GI) problems
same,nephrotoxicity,[7],not overtly nephrotoxic
"COCCOCCOCCOc1cccc(C2=N[C@@](C)(C(=O)O)CS2)c1O [compound 5, (S)-4,5-dihydro-2-[2-hydroxy-3-(3,6,9-trioxadecyloxy)]-4-methyl-4-thiazolecarboxylic acid]",nephrotoxicity,[5],the renal toxicity virtually disappeared
COCCOCCOc1cccc(C2=N[C@@](C)(C(=O)O)CS2)c1O [compound 9],LogPapp,[2],−0.96
same,Rodent Iron-Clearing Efficiency (%),"[3]; po 300 μmol/kg, monosodium salt, 48-h sample collection",15.1 ± 2.0%
same,relative percentages of the iron excreted in the bile and urine,"[3]; po 300 μmol/kg, monosodium salt, 48 h",99/1
same,Primate Iron-Clearing Efficiency (%),[4],22.5 ± 6.4%
same,relative percentages of the iron excreted in the feces and urine,[4],86/14
